Like-named read-outs stand apart in the source and are kept apart here.
Legend:
[1] = Disappearance in rat plasma and tissue S9 fractions; format: in vitro ADME; settings: 10 μM, 5 min, S9 0.5 mg/mL, NADPH or UDPGA/alamethicin
Protocol: The rat gut, spleen, kidney, liver, heart, brain, and lung were excised after cervical dislocation, rinsed with cold saline, blotted dry with tissue paper, and weighed. Each tissue sample was homogenized using a homogenizer (Ultra-Turrax T10 basi; IKA-Werke GmbH & Co. KG, Staufen, Germany) in cold 0.25 M sucrose solution. The homogenate was centrifuged at 9000× g for 30 min, and the supernatant fraction was stored at −80 °C until further use. The reaction mixture consisted of substrate, plasma, or tissue S9 fractions (protein concentration: 0.5 mg/mL) and NADPH (1 mM) or UDPGA (2 mM) in Tris buffer (100 mM; pH 7.4). After preincubation at 37 °C for 5 min, acacetin (final concentration: 10 μM) was added to initiate the enzyme reaction. After 5 min of incubation with shaking at 37 °C, the reaction was terminated by mixing the reaction mixture with acetonitrile containing IS (volume four times that of the reaction mixture). After vortex-mixing and centrifugation at 16,000× g for 10 min, 100 μL of the supernatant was obtained and stored at −80 °C until further LC-MS/MS assay.

[2] = Blood-to-plasma concentration ratio; format: in vitro ADME; settings: Sprague-Dawley, rat, 37 °C, read-out: RB (blood-to-plasma concentration ratio)
Protocol: (§1) The fractions of unbound acacetin in plasma (fuP), microsomes (fuMIC), SGF (fuSGF), and SIF(fuSIF) were measured using a rapid equilibrium dialysis device (Thermo Fisher Scientific, Inc., Waltham, MA, USA) as previously described with slight modifications. Briefly, 0.2 mL of the matrix spiked with acacetin (10 μM) was placed into the “sample” chamber, and 0.4 mL of PBS was placed into the adjacent “buffer” chamber. The fractions of unbound acacetin were calculated as the concentration ratio between the two chambers. The blood-to-plasma concentration ratio (RB) of acacetin was determined as described previously. Briefly, 1-mL blood spiked with acacetin (1 μM) was incubated at 37 °C for 30 min. The blood sample was centrifuged at 2000× g for 5 min to prepare the plasma sample. The concentrations of acacetin in the aforementioned plasma and buffer samples were measured using the LC-MS/MS method.

[3] = Parallel artificial membrane permeability assay (PAMPA); format: in vitro ADME; settings: GIT PAMPA Double Sink
Protocol: Simulated intestinal fluid (SIF) was prepared by dissolving 3 mM sodium taurocholate and 0.1% (w/v) pancreatin in phosphate buffer (final pH = 7.0). The solubility of acacetin was measured by adding excessive amounts of acacetin into glass vials containing 1.5 mL of water, pH 7.4 phosphate buffer, SGF, and SIF. […] The samples were centrifuged at 16,000× g for 5 min, and the supernatant was passed through a 0.20-μm syringe filter to remove excess acacetin. Further, the concentration of acacetin in the filtrate was determined using the LC-MS/MS method. […] Finally, the acacetin concentrations in the octanol and water layers were determined using the LC-MS/MS method. […] The PAMPA was conducted using a commercially available PAMPA kit (GIT PAMPA Double Sink; pION Inc., Massachusetts, MA, USA) according to the manufacturer's protocol. The permeability was calculated using pION PAMPA Explorer ver. 3.8 software (pION Inc., Massachusetts, MA, USA).

[4] = Unbound fraction by rapid equilibrium dialysis; format: in vitro ADME, rat
Protocol: as §1

[5] = design: method as in PMID 25456423; settings: oral, 1.4–1.676 mg/kg in rats; cited from earlier work
[6] = In situ closed-loop study (jejunal loop); format: in vivo, rat
Protocol: The in situ closed-loop study was performed as previously described with slight modification. Briefly, after minimal abdominal incision under light ether anesthetization and sufficient washing of the contents within the GI tract, the jejunal loop was closed by ligation performed at approximately 2 cm distal to both ends of each jejunal section. Acacetin suspension (final concentration: 1 mg/mL) was prepared by dispersing acacetin powder in the vehicle solution for oral study and subsequently diluting it 5-fold with the SIF (final composition: 2% DMSO, 1% EtOH, and 17% PEG400 in the SIF). After injecting 0.2 mL of acacetin suspension into each loop using a l-mL 31-gauge syringe, the whole GI tract was carefully returned to its original position in the abdominal cavity. At 4 h after the injection, each loop was removed, transferred into a beaker containing 50 mL of methanol, and handled similar to the GI samples in the in vivo pharmacokinetic study. As control (in vitro isolated loop) groups, the jejunal closed-loop was prepared in the same manner as the in situ loop study, removed from the rat intestinal tract using scissors with special care not to damage the loop, and transferred to a glass beaker. Then, acacetin dispersed in the vehicle was injected into the isolated loop. After 0-h and 4-h incubation at 37 °C, the remaining fraction of acacetin in the isolated loop was measured in the same manner as the procedure for the GI sample in the in vivo pharmacokinetic study.

rat CYP2C = assay: Disappearance in RLM with CYP isoform-selective inhibitor SPZ; format: in vitro ADME; settings: acacetin 20 μM, 10-μM SPZ, NADPH, 5 min
Protocol: To investigate hepatic phase I enzymes- and UGT-dependent metabolism of acacetin, the disappearance rate of acacetin at concentrations of 1–200 µM in RLM was measured in the presence of both NADPH and UDPGA. The substrate (acacetin) concentration ((S); µM) versus the initial metabolic rate (V; nmol/min/mg protein) profiles were interpreted based on Michaelis–Menten kinetics, and relevant parameters were estimated via nonlinear regression analysis (GraphPad Prism ver. 5.01; GraphPad Software, San Diego, CA, USA) using the following Michaelis–Menten equation: V = Vmax× [S]/Km× [S] where Km and Vmax are the Michaelis–Menten constant and maximal metabolic rate, respectively. The unbound intrinsic metabolic clearance (CLint) was calculated as Vmax/(Km × fuMIC). Furthermore, the disappearance of acacetin (20 μM) in the absence or presence of specific CYP isoform-selective inhibitors in RLM was determined to study the hepatic CYP-mediated metabolism of acacetin. Microsomal incubation mixtures (total volume of 200 μL) were prepared as follows: RLM (0.5 mg/mL microsomal protein), 1 mM NADPH, 10 mM MgCl2, 50 mM potassium phosphate buffer, acacetin, with or without CYP isoform-selective inhibitors (10 μM NF for rat CYP1A, 10-μM SPZ for rat CYP2C, 10-μM QND for rat CYP2D, and 10-μM KCZ for rat CYP3A). […]

blood plasma ratio at 30 min, 1 μM [2]: ~1
Papp [3]: 8.06 ± 0.91 ×10⁻⁶ cm/s
fraction unbound at 10 μM ([4]; SGF, 10 μM, read-out: fuSGF (fraction unbound in SGF)): 0.822 ± 0.026
fraction unbound at 10 μM ([4]; SIF, 10 μM, read-out: fuSIF (fraction unbound in SIF)): 0.714 ± 0.009
fraction unbound at 10 μM ([4]; Sprague-Dawley, rat, liver microsomes (RLM), RLM, 10 μM, read-out: fuMIC (fraction unbound in microsomes)): 0.302 ± 0.021
fraction unbound at 10 μM ([4]; Sprague-Dawley, rat, plasma and liver microsomes (RLM), range over plasma and RLM, read-out: Unbound fraction in plasma and RLM): 0.00901 to 0.317
fraction unbound at 10 μM ([4]; Sprague-Dawley, rat plasma, 10 μM, read-out: fuP (fraction unbound in plasma)): 0.0102 ± 0.0011
fraction unbound at 10 μM ([4]; range over SGF and SIF, read-out: Unbound fraction in SGF and SIF): 0.707 to 0.849
Fraction of dose eliminated by GI and hepatic first-pass metabolism ([6]; = 2.9 − 2.34): 0.56 % of the dose
Fraction unabsorbed from the GI tract ([6]; =100 − 2.9): 97.1 % of the dose
Portion absorbed from the loop ([6]; difference isolated loop vs in situ loop): 2.9%
Remaining fraction in the in vitro isolated loop ([6]; jejunal loop, 4-h incubation at 37 °C): 78.9%
Remaining fraction in the in situ loop ([6]; rat jejunal loop, 4 h after injection): 76.0%
Reduction of relative disappearance rate in presence of SPZ (rat CYP2C): 25.8%
SMILES: COc1ccc(-c2cc(=O)c3c(O)cc(O)cc3o2)cc1 [acacetin, Acacetin]
Tissue-dependent metabolizing activity (disappearance rate) [1]: the liver exhibited significantly higher metabolizing activity than all the tested tissues
Cmax [5]: 19.02 ng/mL

From publication PMC7911516, “Investigation of the Factors Responsible for the Poor Oral Bioavailability of Acacetin in Rats: Physicochemical and Biopharmaceutical Aspects” (Pharmaceutics, 2021)
